# Assay results reported in the OligoGym collection.
# Oligonucleotides are written 5' to 3', each unit as a sugar letter and its base; * is a phosphorothioate linkage, no mark a phosphodiester; rarer units and linkages stand in square brackets, end groups in braces. Plain capitals give the bases only. Oligonucleotides are given in HELM: sugar(base)linkage, 5' to 3'; d 2'-deoxyribose, r ribose, m 2'-O-methylribose, p phosphate. ss, as = sense and antisense strand; d = 2'-deoxy (DNA); r = 2'-OH (RNA)
# Target: Cacnb1 (rat)
# Assay: reporter assay of Huesken 2005
# Settings: siRNA
# Also: test concentration or dose not given here.
row,Substance,normalised inhibition (eCFP-eYFP dual reporter) [%]
1,RNA1{r(C)p.r(G)p.r(A)p.r(A)p.r(A)p.r(C)p.r(U)p.r(C)p.r(U)p.r(G)p.r(U)p.r(C)p.r(U)p.r(A)p.r(C)p.r(A)p.r(C)p.r(G)p.r(G)p.d(T)p.d(T)}|RNA2{r(C)p.r(C)p.r(G)p.r(U)p.r(G)p.r(U)p.r(A)p.r(G)p.r(A)p.r(C)p.r(A)p.r(G)p.r(A)p.r(G)p.r(U)p.r(U)p.r(U)p.r(C)p.r(G)p.d(G)p.d(C)}$$$RNA1{StrandType:ss}|RNA2{StrandType:as}$,44
2,RNA1{r(A)p.r(A)p.r(C)p.r(C)p.r(G)p.r(C)p.r(C)p.r(U)p.r(C)p.r(A)p.r(G)p.r(C)p.r(U)p.r(C)p.r(C)p.r(A)p.r(G)p.r(C)p.r(A)p.d(T)p.d(T)}|RNA2{r(U)p.r(G)p.r(C)p.r(U)p.r(G)p.r(G)p.r(A)p.r(G)p.r(C)p.r(U)p.r(G)p.r(A)p.r(G)p.r(G)p.r(C)p.r(G)p.r(G)p.r(U)p.r(U)p.d(T)p.d(T)}$$$RNA1{StrandType:ss}|RNA2{StrandType:as}$,46.2
3,RNA1{r(C)p.r(U)p.r(A)p.r(U)p.r(C)p.r(C)p.r(C)p.r(G)p.r(C)p.r(C)p.r(A)p.r(A)p.r(G)p.r(A)p.r(C)p.r(A)p.r(C)p.r(C)p.r(U)p.d(T)p.d(T)}|RNA2{r(A)p.r(G)p.r(G)p.r(U)p.r(G)p.r(U)p.r(C)p.r(U)p.r(U)p.r(G)p.r(G)p.r(C)p.r(G)p.r(G)p.r(G)p.r(A)p.r(U)p.r(A)p.r(G)p.d(C)p.d(G)}$$$RNA1{StrandType:ss}|RNA2{StrandType:as}$,70.7
4,RNA1{r(G)p.r(C)p.r(C)p.r(A)p.r(A)p.r(A)p.r(A)p.r(C)p.r(C)p.r(G)p.r(C)p.r(C)p.r(U)p.r(C)p.r(A)p.r(G)p.r(C)p.r(U)p.r(C)p.d(T)p.d(T)}|RNA2{r(G)p.r(A)p.r(G)p.r(C)p.r(U)p.r(G)p.r(A)p.r(G)p.r(G)p.r(C)p.r(G)p.r(G)p.r(U)p.r(U)p.r(U)p.r(U)p.r(G)p.r(G)p.r(C)p.d(G)p.d(C)}$$$RNA1{StrandType:ss}|RNA2{StrandType:as}$,54.1
5,RNA1{r(A)p.r(G)p.r(C)p.r(C)p.r(G)p.r(G)p.r(C)p.r(C)p.r(G)p.r(U)p.r(C)p.r(A)p.r(G)p.r(A)p.r(C)p.r(U)p.r(C)p.r(C)p.r(G)p.d(T)p.d(T)}|RNA2{r(C)p.r(G)p.r(G)p.r(A)p.r(G)p.r(U)p.r(C)p.r(U)p.r(G)p.r(A)p.r(C)p.r(G)p.r(G)p.r(C)p.r(C)p.r(G)p.r(G)p.r(C)p.r(U)p.d(C)p.d(G)}$$$RNA1{StrandType:ss}|RNA2{StrandType:as}$,44.2
6,RNA1{r(C)p.r(C)p.r(A)p.r(A)p.r(G)p.r(G)p.r(A)p.r(C)p.r(U)p.r(U)p.r(C)p.r(C)p.r(U)p.r(G)p.r(C)p.r(A)p.r(C)p.r(A)p.r(U)p.d(T)p.d(T)}|RNA2{r(A)p.r(U)p.r(G)p.r(U)p.r(G)p.r(C)p.r(A)p.r(G)p.r(G)p.r(A)p.r(A)p.r(G)p.r(U)p.r(C)p.r(C)p.r(U)p.r(U)p.r(G)p.r(G)p.d(G)p.d(C)}$$$RNA1{StrandType:ss}|RNA2{StrandType:as}$,63.2
7,RNA1{r(C)p.r(U)p.r(U)p.r(G)p.r(G)p.r(A)p.r(A)p.r(G)p.r(C)p.r(C)p.r(U)p.r(A)p.r(C)p.r(U)p.r(G)p.r(G)p.r(A)p.r(A)p.r(G)p.d(T)p.d(T)}|RNA2{r(C)p.r(U)p.r(U)p.r(C)p.r(C)p.r(A)p.r(G)p.r(U)p.r(A)p.r(G)p.r(G)p.r(C)p.r(U)p.r(U)p.r(C)p.r(C)p.r(A)p.r(A)p.r(G)p.d(T)p.d(A)}$$$RNA1{StrandType:ss}|RNA2{StrandType:as}$,60.9
8,RNA1{r(C)p.r(A)p.r(G)p.r(G)p.r(A)p.r(G)p.r(A)p.r(U)p.r(G)p.r(A)p.r(G)p.r(G)p.r(U)p.r(G)p.r(C)p.r(C)p.r(A)p.r(G)p.r(U)p.d(T)p.d(T)}|RNA2{r(A)p.r(C)p.r(U)p.r(G)p.r(G)p.r(C)p.r(A)p.r(C)p.r(C)p.r(U)p.r(C)p.r(A)p.r(U)p.r(C)p.r(U)p.r(C)p.r(C)p.r(U)p.r(G)p.d(G)p.d(A)}$$$RNA1{StrandType:ss}|RNA2{StrandType:as}$,83.4
9,RNA1{r(C)p.r(U)p.r(G)p.r(G)p.r(C)p.r(U)p.r(G)p.r(A)p.r(G)p.r(G)p.r(U)p.r(A)p.r(C)p.r(A)p.r(G)p.r(A)p.r(G)p.r(U)p.r(G)p.d(T)p.d(T)}|RNA2{r(C)p.r(A)p.r(C)p.r(U)p.r(C)p.r(U)p.r(G)p.r(U)p.r(A)p.r(C)p.r(C)p.r(U)p.r(C)p.r(A)p.r(G)p.r(C)p.r(C)p.r(A)p.r(G)p.d(G)p.d(C)}$$$RNA1{StrandType:ss}|RNA2{StrandType:as}$,34.8
10,RNA1{r(U)p.r(G)p.r(G)p.r(U)p.r(G)p.r(G)p.r(G)p.r(A)p.r(C)p.r(C)p.r(A)p.r(U)p.r(C)p.r(G)p.r(C)p.r(U)p.r(C)p.r(A)p.r(A)p.d(T)p.d(T)}|RNA2{r(U)p.r(U)p.r(G)p.r(A)p.r(G)p.r(C)p.r(G)p.r(A)p.r(U)p.r(G)p.r(G)p.r(U)p.r(C)p.r(C)p.r(C)p.r(A)p.r(C)p.r(C)p.r(A)p.d(G)p.d(G)}$$$RNA1{StrandType:ss}|RNA2{StrandType:as}$,71.2
11,RNA1{r(A)p.r(C)p.r(A)p.r(C)p.r(G)p.r(G)p.r(A)p.r(G)p.r(C)p.r(C)p.r(A)p.r(G)p.r(G)p.r(A)p.r(G)p.r(A)p.r(C)p.r(U)p.r(C)p.d(T)p.d(T)}|RNA2{r(G)p.r(A)p.r(G)p.r(U)p.r(C)p.r(U)p.r(C)p.r(C)p.r(U)p.r(G)p.r(G)p.r(C)p.r(U)p.r(C)p.r(C)p.r(G)p.r(U)p.r(G)p.r(U)p.d(A)p.d(G)}$$$RNA1{StrandType:ss}|RNA2{StrandType:as}$,48.8

# Target: UBE2J1
# Assay: reporter assay of Huesken 2005
# Settings: siRNA
row,Substance,normalised inhibition (eCFP-eYFP dual reporter) [%]
1,sense rArUrCrArUrUrArCrCrArUrGrCrGrCrArGrCrCdTdT / antisense rGrGrCrUrGrCrGrCrArUrGrGrUrArArUrGrArUdCdT,55.2
2,sense rCrCrGrArUrUrUrUrGrArUrGrGrArGrGrArGrUdTdT / antisense rArCrUrCrCrUrCrCrArUrCrArArArArUrCrGrGdAdG,48
3,sense rArGrArArGrUrCrArArUrUrCrArUrCrUrGrGrAdTdT / antisense rUrCrCrArGrArUrGrArArUrUrGrArCrUrUrCrUdGdC,79.6
4,sense rGrCrCrUrUrUrArArArArUrCrUrGrGrArArGrCdTdT / antisense rGrCrUrUrCrCrArGrArUrUrUrUrArArArGrGrCdAdA,50.4
5,sense rGrGrArGrArGrGrGrArGrCrCrArUrArGrGrUrUdTdT / antisense rArArCrCrUrArUrGrGrCrUrCrCrCrUrCrUrCrCdTdT,61
6,sense rUrUrCrCrArGrGrGrUrGrCrUrArCrGrGrCrCrAdTdT / antisense rUrGrGrCrCrGrUrArGrCrArCrCrCrUrGrGrArAdTdG,75.1
7,sense rUrArArUrGrGrUrCrGrArUrUrUrGrArArGrUrGdTdT / antisense rCrArCrUrUrCrArArArUrCrGrArCrCrArUrUrAdGdC,46.3
8,sense rCrArUrCrUrCrArGrGrCrCrArUrCrArUrCrCrUdTdT / antisense rArGrGrArUrGrArUrGrGrCrCrUrGrArGrArUrGdCdT,64.7
9,sense rCrUrCrUrUrArUrArUrUrCrCrGrArCrGrArArUdTdT / antisense rArUrUrCrGrUrCrGrGrArArUrArUrArArGrArGdCdT,98.8
10,sense rGrUrUrUrGrArGrCrArUrCrUrCrArGrGrCrCrAdTdT / antisense rUrGrGrCrCrUrGrArGrArUrGrCrUrCrArArArCdAdG,72.6
11,sense rArUrGrArArArCrCrArCrCrArArGrCrArUrUrAdTdT / antisense rUrArArUrGrCrUrUrGrGrUrGrGrUrUrUrCrArUdGdG,68.1
12,sense rArUrUrUrArCrArArGrArUrGrArUrArUrArCrCdTdT / antisense rGrGrUrArUrArUrCrArUrCrUrUrGrUrArArArUdCdA,47.6
13,sense rCrArCrCrArGrCrCrArArGrArGrArCrArArCrCdTdT / antisense rGrGrUrUrGrUrCrUrCrUrUrGrGrCrUrGrGrUrGdGdC,55.8
14,sense rGrArArGrUrCrArArUrUrCrArUrCrUrGrGrArAdTdT / antisense rUrUrCrCrArGrArUrGrArArUrUrGrArCrUrUrCdTdG,75.3
15,sense rUrCrArUrCrArArCrCrUrArCrCrCrArArCrCrUdTdT / antisense rArGrGrUrUrGrGrGrUrArGrGrUrUrGrArUrGrAdAdA,47.9
16,sense rGrArGrCrArUrCrUrCrArGrGrCrCrArUrCrArUdTdT / antisense rArUrGrArUrGrGrCrCrUrGrArGrArUrGrCrUrCdAdA,64.1
17,sense rUrUrGrCrCrUrUrUrArArArArUrCrUrGrGrArAdTdT / antisense rUrUrCrCrArGrArUrUrUrUrArArArGrGrCrArAdCdA,70.5
18,sense rCrCrUrUrUrCrArUrCrArArCrCrUrArCrCrCrAdTdT / antisense rUrGrGrGrUrArGrGrUrUrGrArUrGrArArArGrGdAdT,56.2
19,sense rArUrCrCrArGrGrGrCrCrArCrCrArGrCrCrArAdTdT / antisense rUrUrGrGrCrUrGrGrUrGrGrCrCrCrUrGrGrArUdTdA,76
20,sense rGrCrArGrArArGrUrCrArArUrUrCrArUrCrUrGdTdT / antisense rCrArGrArUrGrArArUrUrGrArCrUrUrCrUrGrCdCdT,54.4
21,sense rGrArGrUrCrArGrArCrUrUrArArArCrCrArCrUdTdT / antisense rArGrUrGrGrUrUrUrArArGrUrCrUrGrArCrUrCdAdG,88.7
22,sense rUrUrUrArUrCrArCrGrGrGrCrGrGrArUrArGrUdTdT / antisense rArCrUrArUrCrCrGrCrCrCrGrUrGrArUrArArAdCdT,51.8
23,sense rArGrGrArCrArGrCrArUrUrArUrUrArGrCrCrAdTdT / antisense rUrGrGrCrUrArArUrArArUrGrCrUrGrUrCrCrUdTdA,74.8
